Source: patent publication US6511978B1, “Pyrrole derivatives useful for farnesyl transferase inhibitors and their preparations” (LG Life Sciences, Ltd., priority 1999, dated 2003)
pIC50: −log10 of the molar value.

What was measured:
Ras farnesyl transferase [1] = target: T1, Ras farnesyl transferase (Rattus norvegicus, UniProt Q02293+Q04631); experiment: In vivo (intracellular) Ras farnesylation inhibition in Rat2 cell line expressing C-Harvey-Ras; type: cell-based; conditions: Rat2 cells expressing C-Harvey-Ras; concentration inhibiting 50% of farnesyl binding; read-out: H-Ras CIC50
T1 construct: endogenous in cells; host or cells: Rat2 fibroblasts transformed with C-Harvey-Ras or with the H-Ras/K-Ras polybasic-domain fusion
Description: (§1) In the present experiment, Rat2 cell line which expresses C-Harvey-Ras protein having transforming activity and Rat2 cell line(Korean patent application No. 97-14409) which is transformed with fused protein of H-Ras substituted with polybasic lysine domain at C-terminus of K-Ras were used. The experiment was performed by the modified Declue's method(Declue. J. E. et al., Cancer Research, 51, 712, 1991) as follows.
(§2) 3×10^5 cells of transformed Rat2 fibroblast cell line were sprayed on 60 mm cell cultivation dish and cultivated for 48 hours in a cell incubator at 37° C. and after 50% or more of density was reached, it was treated with the test compounds. The compound according to the present invention dissolved in dimethylsulfoxide(DMSO) was used. 1% concentration of dimethylsulfoxide was used in both control and test groups. After 4 hours from the treatment with the compound, methionine labeled with 150 μCi of radioactive isotope [^35S] per 1 ml of medium was added and after cultivating for 20 hours, the cells were washed with physiological saline water. The cells were lysed using 1 ml of cold cell lysis buffer solution(50 mM of Sodium HEPES buffer solution containing 5 mM of magnesium chloride, 1 mM of DTT, 1% NP 40, 1 mM of EDTA, 1 mM of PMSF, 2 μM of leupeptin, 2 μM of pepstatin A and 2 μM of antipain) and the supernatant wherein the cells were lysed was obtained by high-velocity centrifugation of 12,000 g×5 minutes. The amount of radioisotope in the supernatant was measured and standardized to obtain a quantitative result in immunoprecipitation reaction and then, Y13-259, a monoclonal antiboby specifically binding to Ras protein(see: Furth, M. E. et al., J. Virol, 43, 294, 1982) was added and reacted for 15 hours at 4° C. Protein A(combined with goat anti-murine immunoglobulin antibody)-agarose suspension was added to the solution and reacted for 1 hour at 4° C. and then, to remove the unspecific binding product, immunoprecipitates were washed with a buffer solution (50 mM Tris chloride buffer solution containing 50 mM of sodium chloride, 0.5% of sodium dioxycholate, 0.5% of NP 40 and 0.1% of SDS). The precipitates were added to a buffer solution for electrophoresis and boiled and then, electrophoresis was performed using 13.5% of SDS polyacrylamide gel. After electrophoresis, the gel was fixed and dried. Then, the gel was exposed to X-ray film, developed and printed. From the result of the experiment, intensities of band of protein combined with or without farnesyl of Ras protein was measured, and the concentration of the test compound inhibiting 50% of farnesyl binding was defined as CIC50, an in vivo Ras farnesyl transferase inhibitory activity. IC50 means the data from Experimental 1 and CIC50 means the data from Experimental 2.

Ras farnesyl transferase [2] = target: T2, Ras farnesyl transferase (Homo sapiens, UniProt P49354+P49356); experiment: Ras farnesyl transferase enzyme inhibition, H-Ras substrate; type: biochemical; conditions: H-Ras substrate protein; recombinant farnesyl transferase; 30 minutes at 37° C.
T2 construct: made in house
Excerpt: (§3) In the present experiment, the improved Pompliano's method (see: Pompliano et al., Biochemistry, 31, 3800, 1992) was applied. Specifically, Ras farnesyl transferase produced by genetic recombination techniques was used, and fused protein of H-Ras(H-Ras-CVLS) substituted with polybasic lysine domain at C-terminus of K-Ras (see: Korean Patent Appln. No. 97-14409) was used as a substrate after it had been purified according to the known method(see, Chung et al., Biochimica et Biophysica Acta, 1129, 278, 1992).
(§4) The enzyme reaction was performed in 50 μl of 50 mM Sodium HEPES buffer solution containing 25 mM of potassium chloride, 25 mM of magnesium chloride, 10 mM of DTT and 50 μM of zinc chloride. 1.5 μM of Ras substrate protein, 0.15 μM of tritium-farnesylpyrophosphate and 4.5 nM of farnesyl transferase were used. More specifically, in the initial step, farnesyl transferase was added to the above buffer solution, reaction was maintained for 30 minutes at 37° C. and then the reaction was stopped by adding 1 ml of ethanol solution containing 1M HCl. The formed precipitates were adsorbed to GF/B filter using Hopper harvestor(Hopper #FH 225V) for filter-binding, washed with ethanol, and then radioactivity of the dried filter was measured using LKB β counter. Enzyme titer was measured in the unsaturated state of substrate where the concentration of Ras substrate protein and farnesyl transferase have quantitative relationship. The compound according to the present invention dissolved in dimethyl sulfoxide(DMSO) was added to the reaction solution in an amount of less than 5% of the total reaction solution, and then the enzyme inhibitory activity thereof was measured. The enzyme inhibitory activity was represented by percentage of the amount of farnesyl incorporated into the Ras substrate protein in the presence of the test compound to that in the absence of the test compound. IC50 of the test compound was defined as the concentration at which 50% of the enzyme activity was inhibited. To evaluate the selective enzyme inhibitory activity of the compound according to the present invention, inhibitory activity on geranylgeranyl transferase was measured. Geranylgeranyl transferase was purified from bovine brain according to the modified Schaber's method(Schaber et al., J. Biol. Chem. 265, 14701, 1990), and substantially the same experimental procedure as that for farnesyl transferase was performed on geranylgeranyl pyrophosphate and Ras-CVIL substrate protein.

Ras farnesyl transferase [3] = target: T2, Ras farnesyl transferase; experiment: Ras farnesyl transferase enzyme inhibition, K-Ras substrate (H-Ras fused with polybasic lysine domain of K-Ras); type: biochemical; conditions: K-Ras substrate (fused protein of H-Ras with polybasic lysine domain of K-Ras); recombinant farnesyl transferase
Excerpt: as §3, §4

Ras farnesyl transferase [4] = target: T1, Ras farnesyl transferase; experiment: In vivo (intracellular) Ras farnesylation inhibition in Rat2 cell line transformed with H-Ras fused with polybasic lysine domain of K-Ras; type: cell-based; conditions: Rat2 cells transformed with H-Ras/K-Ras polybasic domain fused protein; concentration inhibiting 50% of farnesyl binding; read-out: K-Ras CIC50
Description: as §1, §2

Row | SMILES | pIC50 (Ras farnesyl transferase [1]) | pIC50 (Ras farnesyl transferase [2]) | pIC50 (Ras farnesyl transferase [3]) | pIC50 (Ras farnesyl transferase [4])
1 | Cc1ncn(CCCOCc2ccccc2Cl)c1Cn1cc(C(=O)N2CCN(C)CC2)c(-c2cccc3ccccc23)c1 [Example 31, 1-{1-[3-(2-chlorobenzyloxy)propyl]-4-methyl-1H-imidazol-5-ylmethyl}-3-(4-methylpiperazin-1-yl)carbonyl-4-(naphthalen-1-yl)-1H-pyrrole] | > 8.20 | > 8.49 | > 8.68 | > 5.00
2 | COCCN(C)C(=O)c1cn(Cc2c(C)ncn2CCCOCc2ccccc2Cl)cc1-c1cccc2ccccc12 [Example 32, 1-{1-[3-(2-chlorobenzyloxy)propyl]-4-methyl-1H-imidazol-5-ylmethyl}-3-[N-(2-methoxyethyl)-N-methyl]carbamoyl-4-(naphthalen-1-yl)-1H-pyrrole] | > 8.20 | > 8.22 | > 7.82 | < 5.00
3 | Cc1ncc(Cn2cc(C(=O)N3CCN(C)CC3)c(-c3cccc4ccccc34)c2)n1CCCOCc1ccccc1 [Example 33, 1-[1-(3-benzyloxypropyl)-2-methyl-1H-imidazol-5-ylmethyl]-3-(4-methylpiperazin-1-yl)carbonyl-4-(naphthalen-1-yl)-1H-pyrrole] | < 7.52 | < 7.52 | < 7.52 | < 5.00
4 | Cc1ncc(Cn2cc(C(=O)N3CCN(C)CC3)c(-c3cccc4ccccc34)c2)n1CCc1ccccc1 [Example 35, 1-[1-(phenethyl)-2-methyl-1H-imidazol-5-ylmethyl]-3-(4-methylpiperazin-1-yl)carbonyl-4-(naphthalen-1-yl)-1H-pyrrole] | > 8.60 | > 8.60 | > 8.23 | < 5.00
5 | O=[N+]([O-])c1cn(Cc2cncn2Cc2ccc3c(c2)OCO3)cc1-c1cccc2ccccc12 [Example 36, 1-[1-(3,4-methylenedioxybenzyl)-1H-imidazol-5-ylmethyl]-4-(naphthalen-1-yl)-3-nitro-1H-pyrrole] | < 7.00 | > 8.26 | > 7.81 | < 4.70
6 | O=[N+]([O-])c1cn(Cc2cncn2Cc2ccc(Cl)cc2)cc1-c1cccc2ccccc12 [Example 37, 1-[1-(4-chlorobenzyl)-1H-imidazol-5-ylmethyl]-4-(naphthalen-1-yl)-3-nitro-1H-pyrrole] | < 7.60 | > 8.24 | > 8.02 | < 5.00
7 | O=[N+]([O-])c1cn(Cc2cncn2Cc2ccc(Br)cc2)cc1-c1cccc2ccccc12 [Example 38, 1-[1-(4-bromobenzyl)-1H-imidazol-5-ylmethyl]-4-(naphthalen-1-yl)-3-nitro-1H-pyrrole] | < 7.60 | > 7.64 | < 7.52 | < 5.00
8 | O=[N+]([O-])c1cn(Cc2cncn2CCc2ccccc2)cc1-c1cccc2ccccc12 [Example 39, 1-[1-(phenethyl)-1H-imidazol-5-ylmethyl]-4-(naphthalen-1-yl)-3-nitro-1H-pyrrole] | > 7.60 | > 8.22 | > 8.08 | < 5.00
9 | Cc1ccc(CCn2cncc2Cn2cc(-c3cccc4ccccc34)c([N+](=O)[O-])c2)cc1 [Example 40, 1-[1-(4-methylphenethyl)-1H-imidazol-5-ylmethyl]-4-(naphthalen-1-yl)-3-nitro-1H-pyrrole] | < 7.30 | > 7.62 | < 7.52 | < 5.00
10 | O=[N+]([O-])c1cn(Cc2cncn2CCc2ccc(Cl)cc2)cc1-c1cccc2ccccc12 [Example 41, 1-[1-(4-chlorophenethyl)-1H-imidazol-5-ylmethyl]-4-(naphthalen-1-yl)-3-nitro-1H-pyrrole] | < 7.30 | > 8.05 | > 8.40 | < 5.00
11 | O=[N+]([O-])c1cn(Cc2cncn2CCc2ccc(F)cc2)cc1-c1cccc2ccccc12 [Example 42, 1-[1-(4-fluorophenethyl)-1H-imidazol-5-ylmethyl]-4-(naphthalen-1-yl)-3-nitro-1H-pyrrole] | < 7.30 | > 8.38 | > 8.12 | < 5.00
12 | O=[N+]([O-])c1cn(Cc2cncn2CCc2cccc(Br)c2)cc1-c1cccc2ccccc12 [Example 43, 1-[1-(3-bromophenethyl)-1H-imidazol-5-ylmethyl]-4-(naphthalen-1-yl)-3-nitro-1H-pyrrole] | < 7.30 | > 8.52 | > 7.89 | < 5.00
13 | COc1ccc(CCn2cncc2Cn2cc(-c3cccc4ccccc34)c([N+](=O)[O-])c2)cc1 [Example 44, 1-[1-(4-methoxyphenethyl)-1H-imidazol-5-ylmethyl]-4-(naphthalen-1-yl)-3-nitro-1H-pyrrole] | > 7.60 | > 7.96 | > 7.82 | < 5.00
14 | COc1cccc(CCn2cncc2Cn2cc(-c3cccc4ccccc34)c([N+](=O)[O-])c2)c1 [Example 45, 1-[1-(3-methoxyphenethyl)-1H-imidazol-5-ylmethyl]-4-(naphthalen-1-yl)-3-nitro-1H-pyrrole] | > 7.60 | > 7.80 | > 7.80 | < 5.00
15 | O=[N+]([O-])c1cn(Cc2cncn2CCc2cccc3ccccc23)cc1-c1cccc2ccccc12 [Example 46, 1-[1-(naphthalen-1-ylethyl)-1H-imidazol-5-ylmethyl]-4-(naphthalen-1-yl)-3-nitro-1H-pyrrole] | < 7.30 | > 8.15 | > 8.22 | < 5.00
16 | CCOCCCn1cncc1Cn1cc(-c2cccc3ccccc23)c([N+](=O)[O-])c1 [Example 47, 1-[1-(3-ethoxypropyl)-1H-imidazol-5-ylmethyl]-4-(naphthalen-1-yl)-3-nitro-1H-pyrrole] | > 7.90 | > 7.82 | > 7.54 | < 5.00
17 | Cn1cncc1Cn1cc(-c2cccc3ccccc23)c([N+](=O)[O-])c1 [Example 48, 1-[1-(methyl)-1H-imidazol-5-ylmethyl]-4-(naphthalen-1-yl)-3-nitro-1H-pyrrole] | < 7.30 | < 7.52 | < 7.52 | < 5.00
